Common to all, as to assay type: cell-based
For test [1], the system named is YAP-TEAD interaction. As to the kind of experiment: SK-HEP-1 reporter assay (8x TEAD responsive elements driving NanoLuc luciferase). Particulars: Homo sapiens, SK-HEP1, SK-HEP-1 cells, 24 hour incubation. As to the method: To identify inhibitors of YAP-TEAD interaction, 8× TEAD responsive elements driving the NanoLuc® luciferase gene were stably integrated into SK-HEP-1 cells (ECACC #: 91091816).
For the assay, cells were treated in duplicates with the test compounds in a 10-point dose, with the top concentration starting at 30 μM (final concentration in assay). After a 24 hour incubation at 37° C., 95% rH, and 5% CO2, a luciferase substrate/lysis reagent mix (NanoGlo™, Promega) was added to the cells, allowing the quantification of cellular luciferase activity.
Cell Media: The cells were cultured in the following media: MEM, +10% FBS, +1× GlutaMAX, +1 mM Sodium-Pyruvate, +100 μM Non-essential amino acids, +0.1 mg/ml Hygromycin. The media used for the assay was: MEM (w/o Phenol Red), +10% FBS, +1× GlutaMAX, +1 mM Sodium-Pyruvate, +100 μM Non-essential amino acids, +0.5% Pen/Strep
(§1) Reagents: The reagents used are listed below:
Cell culture: The cells were examined using an inverted microscope to check for health and cell density. To dissociate adherent cells, the monolayer of cells was washed once with pre-warmed PBS. After removing the PBS, 3 ml pre-warmed Accutase® was added to a F75 flask, dispersed evenly and the flask was allowed to sit in incubator for ˜4-5 minutes.
(§2) When a single cell suspension was obtained, 7 ml of prewarmed growth media was added and resuspended with the cells. The cell suspension was transferred to a sterile 15 ml conical centrifuge tube, and spun for 5 min at 300×g, RT. The supernatant was discarded and the pellet was resuspended in 10 ml of pre-warmed growth media.
(§3) The total cell count was determined, and 20 μl of the desired cell number was added to each well of a 384 well plate using a Multidrop Combi. The plates were then incubated for 24 hours at 37° C., 95% rH, and 5% CO2.
(§4) Compound treatment: 24 hours after seeding, the cells were treated with compounds.
(§5) A 1:333 dilution of compounds, diluted in DMSO, was made to get a final concentration of 0.3% DMSO per well. To transfer the compounds to the assay plate, 120 nl was shot from Labcyte low dead volume plates to the cell plates containing 20 μl media/well with the ECHO 555 liquid handling system. After treatment, the cells were fed with 20 μl fresh pre-warmed assay media using a Multidrop combi.
The assay plates were then incubated for another 24 h at 37° C., 95% rH, and 5% CO2.
Luciferase readout: 24 h after treatment, the plates were taken out of the incubator and were allowed to equilibrate to RT. 30 μl of NanoGlo® reagent was added to the plates in the dark. Plates were shaken for 20 min on a Teleshake (˜1500 rpm) in the dark. The luminescence was then measured using an EnVision microplate reader. The IC50 values were generated using Genedata Screener®.
A general note: A reporter such as luciferase makes a cellular process visible.

Test [2] deals with NCI-H226 cells. As to the kind of experiment: Viability assay in NCI-H226 (Yap-dependent) cells, CyQUANT. The settings on record: Homo sapiens, NCI-H226 YAP dependent cell line, 96 hour incubation. As to the method:
(§6) Viability Assay in NCI-H226 (Yap-Dependent) and SW620 Yap KO (Yap Independent) Cells
(§7) The ability of YAP-TEAD inhibitors to inhibit tumor cell growth was evaluated using two different cell lines: NCI-H226, which is a YAP dependent cell line, and SW620 cells, where YAP and TAZ were knocked out using CRISPR to generate a YAP independent cell line.
(§8) For the assay, cells were treated in duplicates with the test compounds in a 10-point dose, 1:3 dilution steps, with the top concentration starting at 30 μM (final concentration in assay). After a 96 hour incubation at 37° C., 95% rH, and 5% CO2, a cell-permeant DNA-binding dye that stains only healthy cells (CyQUANT®, Promega) was added to the cells, allowing the quantification of cell viability.
(§9) Cell Media: The NCI-H226 cells were cultured in the following media: RPMI 1640, +10% FBS, +1× GlutaMAX, +10 mM HEPES, +0.5% Pen/Strep. The SW620-KO cells were cultured in the following media: DMEM/F-12, +10% FBS, +1× GlutaMAX, +10 mM HEPES, +0.5% Pen/Strep.
as §1
(§10) Cell culture: The cells were examined using an inverted microscope to check for health, cell density, etc. To dissociate adherent cells, the monolayer of cells was washed once with pre-warmed PBS. After removing the PBS, 3 ml pre-warmed Accutase was added to a F75 flask, dispersed evenly and the flask was allowed to sit in incubator for ˜4-5 minutes.
as §2, §3, §4, §5
(§11) The assay plates were then incubated for 96 h at 37° C., 95% rH, and 5% CO2.
(§12) 96 h after treatment 30 μl of CyQuant® reagent was added to the assay plates using a Multidrop combi in the dark. The plates were then incubated for 1 hour at 37° C., 95% rH and 5% CO2. Thereafter, the assay plates were removed from the incubator and allowed to equilibrate to RT for 30 min in the dark without lid. Finally, they were measured using an EnVision microplate reader with a FITC bottom read program.

The subject of test [3] is SW620 Yap KO cells. As to the kind of experiment: Viability assay in SW620 Yap KO (Yap independent) cells, CyQUANT. The settings on record: Homo sapiens, SW-620, SW620 YAP and TAZ knocked out (YAP independent), 96 hour incubation, n.d. (x) = not detectable below threshold x. As to the method:
as §6, §7, §8, §9, §1, §10, §2, §3, §4, §5, §11, §12

[4] abbreviates: number, or n.d. (x) = not detectable below threshold x.

The record followed here is US20260159525A1, “TRICYCLIC HETEROCYCLES” (Merck Patent GmbH, priority 2021, published 2026).

pIC50: −log10 of the molar value.

Usually pIC50 stands for −log10 of the IC50, conventionally taken in molar units. Consider `COCC[C@@H](CO)NC(=O)c1cc2c3cn(C)nc3n(-c3ccc(C(F)(F)F)cc3)c2s1` (single isomer, unassigned) [Compound 59], for which the pIC50 in test [1] (setting [4]) is under 6.52; in test [2] (group symbols) it was 6.00 to 7.00.
With `Cn1cc2c3cc(C(=O)N=[S@@](C)(=O)CCCO)sc3n(-c3ccc(C(F)(F)F)cc3)c2n1` (single isomer, unassigned) [Compound 61], the pIC50 is under 5.02 in test [1] (setting [4]) and 6.00 to 7.00 in test [2] (group symbols).
The compound `Cn1cc2c3cc(C(=O)N[C@H](CCO)c4ccccn4)sc3n(-c3ccc(C(F)(F)F)cc3)c2n1` (single isomer, unassigned) [Compound 90] showed a pIC50 in test [2] (printed number) of 5.82.
For `CNC(=O)c1cc2c(s1)c1cn(C)nc1n2-c1ccc(C(F)(F)F)cc1` [Compound 1, N,10-dimethyl-7-[4-(trifluoromethyl)phenyl]-3-thia-7,9,10-triazatricyclo[6.3.0.0^2,6]undeca-1(11),2(6),4,8-tetraene-4-carboxamide], the pIC50 in test [1] (group symbols) is 5.00 to 7.00; in test [2] (group symbols) it was under 5.00.
In the same order, the values of `Cn1cc2c3sc(C(=O)O)cc3n(-c3ccc(C(F)(F)F)cc3)c2n1` [Compound 2, 10-methyl-7-[4-(trifluoromethyl)phenyl]-3-thia-7,9,10-triazatricyclo[6.3.0.0^2,6]undeca-1(11),2(6),4,8-tetraene-4-carboxylic acid] are 7.00 to 8.00 and 6.00 to 7.00.
In the case of `Cn1nc2c3sc(C(=O)O)cc3n(-c3ccc(C(F)(F)F)cc3)c2n1` [Compound 3, 4-methyl-7-[4-(trifluoromethyl)phenyl]-11-thia-3,4,5,7-tetraazatricyclo[6.3.0.0^2,6]undeca-1(8),2,5,9-tetraene-10-carboxylic acid], the pIC50 is 7.00 to 8.00 in test [1] (group symbols) and 6.00 to 7.00 in test [2] (group symbols).
In the case of `Cn1nc2c3sc(C(=O)NC(CO)c4ccccn4)cc3n(-c3ccc(C(F)(F)F)cc3)c2n1` (centres unmarked) [Compound 4, N-[2-hydroxy-1-(pyridin-2-yl)ethyl]-4-methyl-7-[4-(trifluoromethyl)phenyl]-11-thia-3,4,5,7-tetraazatricyclo[6.3.0.0^2,6]undeca-1(8),2,5,9-tetraene-10-carboxamide], the pIC50 in test [1] (group symbols) was under 5.00; in test [2] (group symbols), 5.00 to 6.00.
In the case of `CNC(=O)c1cc2c(s1)c1nn(C)nc1n2-c1ccc(C(F)(F)F)cc1` [Compound 5, N,4-dimethyl-7-[4-(trifluoromethyl)phenyl]-11-thia-3,4,5,7-tetraazatricyclo[6.3.0.0^2,6]undeca-1(8),2,5,9-tetraene-10-carboxamide], the values for the pIC50 in test [1] (group symbols) and in test [2] (group symbols) were under 5.00 and 5.00 to 6.00, respectively.
On to `CNC(=O)c1cc2c3cn(C)nc3n(-c3ccc(C(F)(F)F)cc3)c2s1` [Compound 32, N,4-dimethyl-7-[4-(trifluoromethyl)phenyl]-9-thia-4,5,7-triazatricyclo[6.3.0.0^2,6]undeca-1(8),2,5,10-tetraene-10-carboxamide], for which the results for the pIC50 in test [1] (group symbols) and in test [2] (group symbols) were 7.00 to 8.00 and 7.00 to 9.00, respectively.
In the same order, the values of `Cn1cc2c3cc(C(=O)N=S(C)(C)=O)sc3n(-c3ccc(C(F)(F)F)cc3)c2n1` [Compound 34, N-[dimethyl(oxo)-λ^6-sulfanylidene]-4-methyl-7-[4-(trifluoromethyl)phenyl]-9-thia-4,5,7-triazatricyclo[6.3.0.0^2,6]undeca-1(8),2,5,10-tetraene-10-carboxamide] are 5.00 to 7.00 and 6.00 to 7.00.
Consider `Cn1cc2c3cc(C(=O)O)sc3n([C@H]3CC[C@@H](C(F)(F)F)CC3)c2n1` [Compound 51, 4-methyl-7-[(1s,4s)-4-(trifluoromethyl)cyclohexyl]-9-thia-4,5,7-triazatricyclo[6.3.0.0^2,6]undeca-1(8),2,5,10-tetraene-10-carboxylic acid], for which the pIC50 in test [1] (group symbols) was 5.00 to 7.00; in test [3], under 4.52.
For the compound `Cn1cc2c3cc(C(=O)NCCOCCOCCNC(=O)OC(C)(C)C)sc3n(-c3ccc(C(F)(F)F)cc3)c2n1` [Compound 88, tert-butyl N-(2-{2-[2-({4-methyl-7-[4-(trifluoromethyl)phenyl]-9-thia-4,5,7-triazatricyclo[6.3.0.0^2,6]undeca-1(8),2,5,10-tetraen-10-yl}formamido)ethoxy]ethoxy}ethyl)carbamate], the results for the pIC50 in test [1] (setting [4]) and in test [2] (printed number) were under 4.52 and 7.06, respectively.
As for `CC[C@H](CO)NC(=O)c1cc2c3cn(C)nc3n(-c3ccc(C(F)(F)F)cn3)c2s1` [Compound 114, N-[(2R)-1-hydroxybutan-2-yl]-4-methyl-7-[5-(trifluoromethyl)pyridin-2-yl]-9-thia-4,5,7-triazatricyclo[6.3.0.0^2,6]undeca-1(8),2,5,10-tetraene-10-carboxamide], the pIC50 in test [1] (setting [4]) was under 5.52.
In test [1] (setting [4]), `Cn1cc2c3cc(C(=O)NCC(O)CO)sc3n(-c3ccc(C(F)(F)F)cn3)c2n1` (centres unmarked) [Compound 115, N-(2,3-dihydroxypropyl)-4-methyl-7-[5-(trifluoromethyl)pyridin-2-yl]-9-thia-4,5,7-triazatricyclo[6.3.0.0^2,6]undeca-1(8),2,5,10-tetraene-10-carboxamide] had a negative logarithm of the IC50 (pIC50) of under 6.52.
Compound `Cn1ccc(C(CO)NC(=O)c2cc3c4cn(C)nc4n(-c4ccc(C(F)(F)F)cn4)c3s2)n1` (centres unmarked) [Compound 116, N-[2-hydroxy-1-(1-methyl-1H-pyrazol-3-yl)ethyl]-4-methyl-7-[5-(trifluoromethyl)pyridin-2-yl]-9-thia-4,5,7-triazatricyclo[6.3.0.0^2,6]undeca-1(8),2,5,10-tetraene-10-carboxamide] gave a pIC50 in test [1] (setting [4]) of under 4.52.
`Cn1cc2c3cc(C(=O)O)sc3n(-c3ccc(OC(F)F)cn3)c2n1` [Compound 127, 7-[5-(difluoromethoxy)pyridin-2-yl]-4-methyl-9-thia-4,5,7-triazatricyclo[6.3.0.0^2,6]undeca-1(8),2,5,10-tetraene-10-carboxylic acid] had a pIC50 in test [1] (group symbols) of 7.00 to 8.00.
With `C[C@H](CO)NC(=O)c1cc2c3cn(C)nc3n(-c3ccc(C(F)F)cn3)c2s1` [Compound 132, 7-[5-(difluoromethyl)pyridin-2-yl]-N-[(2R)-1-hydroxypropan-2-yl]-4-methyl-9-thia-4,5,7-triazatricyclo[6.3.0.0^2,6]undeca-1(8),2,5,10-tetraene-10-carboxamide], in test [1] (setting [4]), the pIC50 was under 6.52.
`Cn1cc2c3sc(C(=O)NC4CC4)cc3n(-c3ccc(C(F)(F)F)cc3)c2n1` [compound 12]: the negative-log IC50 (pIC50) in test [1] (group symbols) was under 5.00.
